From ChEMBL document CHEMBL5291721, “A preclinical secondary pharmacology resource illuminates target-adverse drug reaction associations of marketed drugs” (Nat Commun, 2023) come the findings set out here.

Among the targets are D(1A) dopamine receptor (Homo sapiens, UniProt P21728); Mu-type opioid receptor (Homo sapiens, UniProt P35372); D(3) dopamine receptor (Homo sapiens, UniProt P35462); Histamine H3 receptor (Homo sapiens, UniProt Q9Y5N1).
Test [1] has as its target Voltage-gated inwardly rectifying potassium channel KCNH2 (Homo sapiens, UniProt Q12809). Format: functional. To be noted: read-out: AC50.
The target of test [2] is Prostaglandin G/H synthase 1 (Homo sapiens, UniProt P23219). Format: functional.
Sequence of Prostaglandin G/H synthase 1 (P23219 whole entry): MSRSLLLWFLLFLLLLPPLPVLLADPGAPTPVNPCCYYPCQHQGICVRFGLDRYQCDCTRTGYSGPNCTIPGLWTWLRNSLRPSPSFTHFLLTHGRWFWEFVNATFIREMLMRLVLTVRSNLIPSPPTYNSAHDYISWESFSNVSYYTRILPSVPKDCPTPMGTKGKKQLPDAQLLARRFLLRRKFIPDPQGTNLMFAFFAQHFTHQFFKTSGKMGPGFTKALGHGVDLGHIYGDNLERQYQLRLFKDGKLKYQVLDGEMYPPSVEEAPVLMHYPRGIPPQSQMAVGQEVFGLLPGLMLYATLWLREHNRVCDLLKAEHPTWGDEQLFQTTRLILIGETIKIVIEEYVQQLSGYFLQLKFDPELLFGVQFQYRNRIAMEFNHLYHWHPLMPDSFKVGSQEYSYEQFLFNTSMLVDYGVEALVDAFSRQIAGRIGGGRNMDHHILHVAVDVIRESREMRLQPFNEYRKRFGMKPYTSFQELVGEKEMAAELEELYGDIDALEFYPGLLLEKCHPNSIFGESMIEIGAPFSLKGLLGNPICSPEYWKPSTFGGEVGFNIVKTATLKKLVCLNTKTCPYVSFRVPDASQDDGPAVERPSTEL
The target in test [3] is 3',5'-cyclic-AMP phosphodiesterase 4A (Homo sapiens, UniProt P27815). Format: functional.
Sequence of 3',5'-cyclic-AMP phosphodiesterase 4A (P27815 whole entry): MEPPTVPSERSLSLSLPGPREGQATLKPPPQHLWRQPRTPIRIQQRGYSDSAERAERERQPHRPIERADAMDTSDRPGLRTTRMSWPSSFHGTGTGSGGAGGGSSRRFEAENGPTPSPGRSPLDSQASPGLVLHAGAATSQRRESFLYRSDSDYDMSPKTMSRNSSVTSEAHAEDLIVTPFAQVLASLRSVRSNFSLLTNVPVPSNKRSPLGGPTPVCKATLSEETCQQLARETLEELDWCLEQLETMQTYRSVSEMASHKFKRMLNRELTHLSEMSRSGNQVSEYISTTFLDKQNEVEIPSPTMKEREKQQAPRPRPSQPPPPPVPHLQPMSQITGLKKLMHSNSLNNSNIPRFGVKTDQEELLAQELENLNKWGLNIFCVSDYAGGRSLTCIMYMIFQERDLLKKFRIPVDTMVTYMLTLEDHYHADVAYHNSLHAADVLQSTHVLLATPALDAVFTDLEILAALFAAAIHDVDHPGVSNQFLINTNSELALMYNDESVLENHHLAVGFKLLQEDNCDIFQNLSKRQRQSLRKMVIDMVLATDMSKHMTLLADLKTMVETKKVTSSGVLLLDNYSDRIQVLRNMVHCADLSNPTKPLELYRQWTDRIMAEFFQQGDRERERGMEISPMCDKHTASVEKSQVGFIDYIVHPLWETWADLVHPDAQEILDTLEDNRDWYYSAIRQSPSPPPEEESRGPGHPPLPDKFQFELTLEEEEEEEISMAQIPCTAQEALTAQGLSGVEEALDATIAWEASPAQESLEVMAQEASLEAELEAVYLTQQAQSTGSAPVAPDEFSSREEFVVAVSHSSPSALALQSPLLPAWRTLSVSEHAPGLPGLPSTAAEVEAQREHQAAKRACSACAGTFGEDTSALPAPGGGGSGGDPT
A further test deals with T1, Estrogen receptor (Homo sapiens, UniProt P03372).
T1 sequence (P03372 whole entry): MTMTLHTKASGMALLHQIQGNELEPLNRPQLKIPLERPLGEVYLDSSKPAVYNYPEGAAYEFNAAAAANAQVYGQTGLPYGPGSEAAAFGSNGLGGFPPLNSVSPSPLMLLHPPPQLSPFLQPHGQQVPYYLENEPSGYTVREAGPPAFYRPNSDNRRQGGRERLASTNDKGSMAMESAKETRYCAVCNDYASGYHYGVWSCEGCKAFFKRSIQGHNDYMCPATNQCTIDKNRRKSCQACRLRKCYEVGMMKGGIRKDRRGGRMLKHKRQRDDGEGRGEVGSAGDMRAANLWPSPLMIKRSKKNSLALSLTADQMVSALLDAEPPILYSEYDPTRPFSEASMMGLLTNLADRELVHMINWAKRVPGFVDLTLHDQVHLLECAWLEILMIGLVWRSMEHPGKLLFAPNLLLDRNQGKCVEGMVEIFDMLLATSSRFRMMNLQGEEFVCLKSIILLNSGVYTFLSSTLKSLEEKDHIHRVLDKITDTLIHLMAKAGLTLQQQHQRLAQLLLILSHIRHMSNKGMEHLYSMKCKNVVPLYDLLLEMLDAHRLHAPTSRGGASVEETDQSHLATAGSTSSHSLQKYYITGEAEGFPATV

For test [4], the target named is T2, 5-hydroxytryptamine receptor 1A (Homo sapiens, UniProt P08908).
T2 sequence (P08908 whole entry): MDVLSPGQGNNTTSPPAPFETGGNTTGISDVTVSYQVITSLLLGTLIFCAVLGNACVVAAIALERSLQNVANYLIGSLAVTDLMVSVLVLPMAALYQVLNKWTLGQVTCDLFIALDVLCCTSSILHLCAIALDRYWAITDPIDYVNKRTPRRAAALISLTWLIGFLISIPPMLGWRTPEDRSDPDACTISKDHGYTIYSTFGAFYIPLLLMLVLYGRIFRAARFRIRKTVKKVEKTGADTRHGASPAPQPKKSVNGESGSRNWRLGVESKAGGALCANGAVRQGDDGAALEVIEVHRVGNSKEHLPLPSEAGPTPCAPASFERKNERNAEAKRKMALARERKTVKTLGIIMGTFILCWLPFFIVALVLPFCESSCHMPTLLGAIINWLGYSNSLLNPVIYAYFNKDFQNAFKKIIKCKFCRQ

For test [5], the target named is T3, Alpha-2A adrenergic receptor (Homo sapiens, UniProt P08913).
T3 sequence (P08913 whole entry): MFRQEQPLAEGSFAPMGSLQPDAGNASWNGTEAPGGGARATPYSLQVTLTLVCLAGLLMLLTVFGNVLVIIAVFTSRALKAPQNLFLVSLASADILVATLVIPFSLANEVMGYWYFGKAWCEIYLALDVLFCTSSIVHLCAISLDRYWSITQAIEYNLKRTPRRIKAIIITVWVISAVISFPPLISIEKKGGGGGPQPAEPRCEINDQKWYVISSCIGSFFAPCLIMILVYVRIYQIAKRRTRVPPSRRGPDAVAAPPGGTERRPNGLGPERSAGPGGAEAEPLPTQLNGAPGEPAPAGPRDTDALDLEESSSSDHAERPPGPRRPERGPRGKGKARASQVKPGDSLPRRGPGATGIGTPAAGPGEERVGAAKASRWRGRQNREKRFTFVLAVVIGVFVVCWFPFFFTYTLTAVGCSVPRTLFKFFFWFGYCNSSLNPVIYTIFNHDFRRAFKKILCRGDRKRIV

The next test addresses T4, Adenosine receptor A3 (Homo sapiens, UniProt P0DMS8).
T4 sequence (P0DMS8 whole entry): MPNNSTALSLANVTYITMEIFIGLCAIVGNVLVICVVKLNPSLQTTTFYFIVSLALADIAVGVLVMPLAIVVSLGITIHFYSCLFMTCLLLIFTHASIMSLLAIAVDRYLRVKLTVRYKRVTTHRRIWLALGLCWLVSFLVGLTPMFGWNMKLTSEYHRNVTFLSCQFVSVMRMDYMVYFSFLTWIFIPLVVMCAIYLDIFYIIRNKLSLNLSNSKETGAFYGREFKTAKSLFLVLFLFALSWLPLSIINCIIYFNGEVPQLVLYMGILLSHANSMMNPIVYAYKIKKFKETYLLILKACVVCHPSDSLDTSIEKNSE

The next test concerns the target Prothrombin (Homo sapiens, UniProt P00734). Format: functional.
The target in test [6] is Sodium-dependent serotonin transporter (Homo sapiens, UniProt P31645).
Sequence of Sodium-dependent serotonin transporter (P31645 whole entry): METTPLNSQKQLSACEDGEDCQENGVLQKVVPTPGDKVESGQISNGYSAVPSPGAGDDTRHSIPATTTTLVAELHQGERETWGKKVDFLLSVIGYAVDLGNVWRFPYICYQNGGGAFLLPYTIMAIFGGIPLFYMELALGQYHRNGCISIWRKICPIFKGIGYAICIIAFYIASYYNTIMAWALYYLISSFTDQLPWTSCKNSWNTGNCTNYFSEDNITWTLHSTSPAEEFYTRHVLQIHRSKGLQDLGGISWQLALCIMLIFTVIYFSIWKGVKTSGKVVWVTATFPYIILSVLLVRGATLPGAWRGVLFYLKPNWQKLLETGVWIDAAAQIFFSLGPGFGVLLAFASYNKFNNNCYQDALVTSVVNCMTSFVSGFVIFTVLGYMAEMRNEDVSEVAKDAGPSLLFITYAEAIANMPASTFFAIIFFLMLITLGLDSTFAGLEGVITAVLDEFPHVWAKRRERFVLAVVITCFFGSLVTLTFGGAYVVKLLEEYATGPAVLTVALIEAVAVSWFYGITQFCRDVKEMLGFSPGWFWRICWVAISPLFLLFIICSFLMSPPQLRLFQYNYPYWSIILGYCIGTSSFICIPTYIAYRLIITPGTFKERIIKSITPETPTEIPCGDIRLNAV
Another test addresses T5, Thromboxane A2 receptor (Homo sapiens, UniProt P21731).
T5 sequence (P21731 whole entry): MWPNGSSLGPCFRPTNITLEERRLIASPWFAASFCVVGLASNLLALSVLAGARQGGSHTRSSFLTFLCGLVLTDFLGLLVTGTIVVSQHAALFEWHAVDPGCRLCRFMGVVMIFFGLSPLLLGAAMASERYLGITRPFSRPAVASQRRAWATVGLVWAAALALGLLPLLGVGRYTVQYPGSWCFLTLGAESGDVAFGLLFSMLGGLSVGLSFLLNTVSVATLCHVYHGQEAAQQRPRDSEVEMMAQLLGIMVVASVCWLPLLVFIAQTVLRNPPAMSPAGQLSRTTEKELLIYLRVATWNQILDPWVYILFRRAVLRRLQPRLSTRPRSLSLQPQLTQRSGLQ
The class given is functional, cell-based.

Test [7] deals with Sodium-dependent dopamine transporter (Homo sapiens, UniProt Q01959).
Sequence of Sodium-dependent dopamine transporter (Q01959 whole entry): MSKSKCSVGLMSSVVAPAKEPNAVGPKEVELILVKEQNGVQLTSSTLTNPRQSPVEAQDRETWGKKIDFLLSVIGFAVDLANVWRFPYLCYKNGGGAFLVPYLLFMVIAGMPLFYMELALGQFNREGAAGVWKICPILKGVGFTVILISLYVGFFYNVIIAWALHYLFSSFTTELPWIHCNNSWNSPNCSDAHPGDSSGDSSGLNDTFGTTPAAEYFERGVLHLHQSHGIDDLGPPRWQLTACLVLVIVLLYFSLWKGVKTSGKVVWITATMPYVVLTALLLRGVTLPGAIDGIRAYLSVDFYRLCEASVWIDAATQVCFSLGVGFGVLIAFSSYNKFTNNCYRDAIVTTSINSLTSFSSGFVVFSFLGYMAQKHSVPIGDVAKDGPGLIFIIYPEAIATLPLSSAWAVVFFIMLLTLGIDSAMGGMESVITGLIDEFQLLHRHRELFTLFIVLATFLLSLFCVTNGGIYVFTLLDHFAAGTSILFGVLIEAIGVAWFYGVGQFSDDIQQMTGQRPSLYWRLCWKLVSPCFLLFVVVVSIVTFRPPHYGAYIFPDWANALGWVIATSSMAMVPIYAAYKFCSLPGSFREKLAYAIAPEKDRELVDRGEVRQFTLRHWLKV
Further: assay procedure not described here.

Sequence of Voltage-gated inwardly rectifying potassium channel KCNH2 (Q12809 whole entry): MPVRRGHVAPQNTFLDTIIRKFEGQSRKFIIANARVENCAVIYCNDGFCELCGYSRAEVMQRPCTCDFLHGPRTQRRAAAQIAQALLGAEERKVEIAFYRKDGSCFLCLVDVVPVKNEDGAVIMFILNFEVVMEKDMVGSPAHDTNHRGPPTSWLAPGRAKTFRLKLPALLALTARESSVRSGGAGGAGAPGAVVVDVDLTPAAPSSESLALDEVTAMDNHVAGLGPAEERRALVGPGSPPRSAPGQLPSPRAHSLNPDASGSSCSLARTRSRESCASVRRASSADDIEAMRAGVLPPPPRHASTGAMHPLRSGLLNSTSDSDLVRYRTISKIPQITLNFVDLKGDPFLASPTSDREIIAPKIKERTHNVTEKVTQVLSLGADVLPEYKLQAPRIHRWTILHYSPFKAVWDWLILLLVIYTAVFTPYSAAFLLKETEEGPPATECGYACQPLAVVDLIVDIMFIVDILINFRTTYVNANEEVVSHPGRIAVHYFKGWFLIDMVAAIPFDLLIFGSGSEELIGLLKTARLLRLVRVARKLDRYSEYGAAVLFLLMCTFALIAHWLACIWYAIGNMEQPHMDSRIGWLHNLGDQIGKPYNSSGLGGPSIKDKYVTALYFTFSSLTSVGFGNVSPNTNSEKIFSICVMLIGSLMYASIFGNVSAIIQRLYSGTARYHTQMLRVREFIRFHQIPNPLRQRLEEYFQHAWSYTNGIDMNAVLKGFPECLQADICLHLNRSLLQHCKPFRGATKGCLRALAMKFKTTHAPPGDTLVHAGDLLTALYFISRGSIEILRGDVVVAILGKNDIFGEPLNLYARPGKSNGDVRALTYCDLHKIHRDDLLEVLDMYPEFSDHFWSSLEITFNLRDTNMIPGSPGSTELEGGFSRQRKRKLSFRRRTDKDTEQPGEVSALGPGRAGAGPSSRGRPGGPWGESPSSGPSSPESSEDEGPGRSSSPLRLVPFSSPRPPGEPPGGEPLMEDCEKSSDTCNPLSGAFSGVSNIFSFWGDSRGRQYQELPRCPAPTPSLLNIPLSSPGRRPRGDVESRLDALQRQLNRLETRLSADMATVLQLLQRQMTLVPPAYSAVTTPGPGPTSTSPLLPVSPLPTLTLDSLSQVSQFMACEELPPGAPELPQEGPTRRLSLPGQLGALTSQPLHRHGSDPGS
Sequence of Histamine H3 receptor (Q9Y5N1 whole entry): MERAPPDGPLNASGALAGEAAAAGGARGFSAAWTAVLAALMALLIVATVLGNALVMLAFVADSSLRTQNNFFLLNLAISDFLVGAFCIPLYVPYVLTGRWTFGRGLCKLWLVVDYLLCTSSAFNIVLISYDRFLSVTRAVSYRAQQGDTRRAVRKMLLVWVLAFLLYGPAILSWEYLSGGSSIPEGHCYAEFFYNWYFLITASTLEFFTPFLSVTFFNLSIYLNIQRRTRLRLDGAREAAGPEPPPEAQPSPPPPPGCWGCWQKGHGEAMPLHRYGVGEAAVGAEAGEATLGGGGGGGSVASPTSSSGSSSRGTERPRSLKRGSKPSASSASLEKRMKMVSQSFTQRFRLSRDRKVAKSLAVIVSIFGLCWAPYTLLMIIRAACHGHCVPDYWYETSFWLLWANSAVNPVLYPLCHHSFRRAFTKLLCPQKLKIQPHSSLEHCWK
Sequence of D(1A) dopamine receptor (P21728 whole entry): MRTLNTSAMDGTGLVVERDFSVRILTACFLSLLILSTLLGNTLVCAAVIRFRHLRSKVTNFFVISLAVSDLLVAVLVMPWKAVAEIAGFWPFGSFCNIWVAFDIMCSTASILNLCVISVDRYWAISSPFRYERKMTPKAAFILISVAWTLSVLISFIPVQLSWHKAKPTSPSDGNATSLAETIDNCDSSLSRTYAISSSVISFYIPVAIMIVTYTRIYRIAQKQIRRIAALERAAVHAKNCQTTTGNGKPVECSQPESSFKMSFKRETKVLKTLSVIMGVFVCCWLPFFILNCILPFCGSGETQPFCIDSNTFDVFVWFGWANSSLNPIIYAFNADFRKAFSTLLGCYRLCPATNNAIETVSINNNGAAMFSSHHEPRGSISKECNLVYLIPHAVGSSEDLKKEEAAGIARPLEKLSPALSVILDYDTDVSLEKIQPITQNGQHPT

As to `O=C1CN=C(c2ccccc2)c2c(sc3c2CCCC3)N1` [BENTAZEPAM], the AC50 (as a rule, the midpoint of the concentration-response curve, whichever way the signal moves) in [1] was over 30 µM; in test [2], over 1 µM; in [3], 15.7 µM; at Estrogen receptor, over 30 µM; in test [4] it was 1.55 µM; in [5] it was 23.9 µM. The AC50 was 14.3 µM on Adenosine receptor A3; over 30 µM on D(1A) dopamine receptor; over 30 µM on Mu-type opioid receptor; over 30 µM on Prothrombin; over 30 µM at D(3) dopamine receptor; over 30 µM in test [6]. Further, the AC50 (at Thromboxane A2 receptor; at Histamine H3 receptor; in [7]) was over 30 µM throughout.

For `CCOc1ccc(/C=C2\NCCc3cc(OCC)c(OCC)cc32)cc1OCC` [DROTAVERINE], the AC50 in test [1] was 2.9 µM; in [2] it was over 10 µM; in test [3], 1.68 µM; at Estrogen receptor, over 30 µM; in test [4], over 30 µM; in [5], 5.83 µM. The AC50 at Adenosine receptor A3 was 26.4 µM; on D(1A) dopamine receptor it was over 30 µM; at Mu-type opioid receptor, over 10 µM; on Prothrombin it was over 30 µM; at D(3) dopamine receptor it was over 30 µM; in test [6] it was 3 µM. Moreover, the AC50 (at Thromboxane A2 receptor; on Histamine H3 receptor; in [7]) was over 30 µM throughout.

Regarding `CCOC(=O)C(c1c(O)c2ccccc2oc1=O)c1c(O)c2ccccc2oc1=O` [ETHYL BISCOUMACETATE], the AC50 (in test [1]; in test [2]; in [3]; at Estrogen receptor; in test [4]; in test [5]) was over 30 µM each time. The AC50 at Adenosine receptor A3 is 17.3 µM; on D(1A) dopamine receptor, over 30 µM; on Mu-type opioid receptor, over 30 µM; on Prothrombin it was over 30 µM; at D(3) dopamine receptor, over 30 µM; in [6] it was over 30 µM. Moreover, the AC50 (at Thromboxane A2 receptor; on Histamine H3 receptor; in test [7]) was over 30 µM each time.

For the molecule `CCN(CC)CCNc1ccc(C)c2sc3ccccc3c(=O)c12` [LUCANTHONE], the AC50 is 1.3 µM in test [1]; over 30 µM in [2]; over 30 µM in test [3]; over 30 µM at Estrogen receptor; 0.523 µM in test [4]; 5.65 µM in [5]. Further, the concentration at half-maximal activity (AC50) was 12.4 µM on Adenosine receptor A3; 6.04 µM at D(1A) dopamine receptor; 11.8 µM at Mu-type opioid receptor; over 30 µM on Prothrombin; 0.91 µM at D(3) dopamine receptor; 6.25 µM in test [6]. The AC50 on Thromboxane A2 receptor amounted to 13.4 µM; on Histamine H3 receptor it was 10.5 µM; in [7], 3.42 µM.

In the case of `COc1ccc(-c2cc(=O)c3c(O)cc(O[C@@H]4O[C@H](CO[C@@H]5O[C@@H](C)[C@H](O)[C@@H](O)[C@H]5O)[C@@H](O)[C@H](O)[C@H]4O)cc3o2)cc1O` [DIOSMIN], the AC50 (in test [1]; in test [2]; in test [3]; at Estrogen receptor; in test [4]; in test [5]) was over 30 µM each time. For the same molecule, the AC50 (at Adenosine receptor A3; at D(1A) dopamine receptor; at Mu-type opioid receptor; on Prothrombin; at D(3) dopamine receptor; in test [6]) was over 30 µM each time. Besides, the AC50 (at Thromboxane A2 receptor; on Histamine H3 receptor; in test [7]) was over 30 µM each time.
